How the values were obtained:
[1] = biological target: T1, LYNa (Homo sapiens, UniProt P07948); assay: Kinase inhibition profiling LYNa (ELISA); format: biochemical
T1 construct: made in house; host or cells: baculovirus expression system
Description: (§1) Each test compound was weighed and dissolved in DMSO to make 1 mM stock solution. The stock solution was diluted with DMSO to achieve 20 μM. The compound solution was diluted with the assay buffer to achieve 0.8 μM.

[2] = biological target: T2, BLK (Homo sapiens, UniProt P51451); assay: Kinase inhibition profiling BLK (ELISA); format: biochemical
T2 construct: made in house; host or cells: baculovirus expression system
Description: as §1

[3] = biological target: T3, PKCα (Homo sapiens, UniProt P17252); assay: Kinase inhibition profiling PKCα (IMAP); format: biochemical
T3 construct: made in house; host or cells: baculovirus expression system
Description: as §1

[4] = biological target: T4, Erk2 (Homo sapiens, UniProt P28482); assay: Kinase inhibition profiling Erk2 (IMAP); format: biochemical
T4 construct: Human Erk2 containing 360 amino acids was expressed; His (N); made in house; host or cells: E. coli
Description: as §1

[5] = tested on: bovine aorta smooth muscle cells (BASMC); assay: Chemotaxis assay, HMGB1-induced migration (modified Boyden chambers); format: cell-based; details: K-252a 3, 10, 30, 100 nM; HMGB-1 25 ng/ml; overnight migration
Description: Chemotaxis assays were performed using a well known and validated protocol (1). Modified Boyden chambers were used with filters having 5-8 μm pore size and treated with collagen I (100 μg/ml in 0.5 M acetic acid) and fibronectin (10 μg/ml, Roche). BASMC (bovine aorta smooth muscle cells) were cultured in serum-free DMEM and a sample of 20,000-40,000 cells was added to the upper well of a Boyden chamber. […] Overnight cell migration was allowed at 37+/−0.5° C., then cells were scraped off and filters were fixed in methanol and stained in a solution of 10% crystal violet in 20% methanol. All experiments were performed at least twice in triplicate. […] Random cell migration, i.e. migration in the absence of chemoattractant, was given the arbitrary value of 100%. Statistical analysis was performed using Student's t test for pairwise comparisons of treatment, or an ANOVA model for the evaluation of treatments with increasing concentrations of a reagent.

[6] = biological target: T5, MAPKAPK2 (Homo sapiens, UniProt P49137); assay: Kinase inhibition profiling MAPKAPK2 (IMAP); format: biochemical
T5 construct: His (N); made in house; host or cells: baculovirus expression system
Description: as §1

[7] = biological target: T6, KDR (Homo sapiens, UniProt P35968); assay: Kinase inhibition profiling KDR (ELISA); format: biochemical
T6 construct: Cytoplasmic domain of human KDR [790-1356 amino; made in house; host or cells: baculovirus expression system
Description: (§2) In particular, the target kinases were Tyrosine kinases and Serine/Threonine kinases.
as §1

[8] = biological target: T7, INSR (Homo sapiens, UniProt P06213); assay: Kinase inhibition profiling INSR (ELISA); format: biochemical
T7 construct: Kinase domain (KD) of human INSR [1005-1310 amino; His (N, cleaved yes); made in house; host or cells: baculovirus expression system
Description: as §1

[9] = biological target: T8, KIT (Homo sapiens, UniProt P10721); assay: Kinase inhibition profiling KIT (ELISA); format: biochemical
T8 construct: made in house; host or cells: baculovirus expression system
Description: as §1

[10] = biological target: T9, ALK (Homo sapiens, UniProt Q9UM73); assay: Kinase inhibition profiling ALK (ELISA); format: biochemical
T9 construct: Cytoplasmic domain of human ALK [1089-1620; His (N, cleaved yes); made in house; host or cells: baculovirus expression system
Description: as §1

[11] = biological target: T10, RON (Homo sapiens, UniProt Q04912); assay: Kinase inhibition profiling RON (ELISA); format: biochemical
T10 construct: Cytoplasmic domain of human RON [979-1400 amino; made in house; host or cells: baculovirus expression system
Description: as §1

[12] = biological target: T11, LYNb (Homo sapiens, UniProt P07948); assay: Kinase inhibition profiling LYNb (ELISA); format: biochemical
T11 construct: made in house; host or cells: baculovirus expression system
Description: as §1

[13] = biological target: T12, SRM (Homo sapiens, UniProt Q9H3Y6); assay: Kinase inhibition profiling SRM (ELISA); format: biochemical
T12 construct: Kinase domain (KD) of human SRM [215-489 amino acids; made in house; host or cells: baculovirus expression system
Description: as §1

[14] = biological target: T13, HER2 (Homo sapiens, UniProt P04626); assay: Kinase inhibition profiling HER2 (ELISA); format: biochemical; note: ATP 5 µM
T13 construct: Cytoplasmic domain of human HER2 [676-1255 amino; made in house; host or cells: baculovirus expression system
Description: as §1

[15] = biological target: T14, JNK2 (Homo sapiens, UniProt P45984); assay: Kinase inhibition profiling JNK2 (ELISA); format: biochemical; note: ATP 5 µM
T14 construct: Human JNK2 containing 424 amino acids was expressed; His (C); made in house; host or cells: E. coli
Description: as §1

[16] = biological target: T15, HCK (Homo sapiens, UniProt P08631); assay: Kinase inhibition profiling HCK (ELISA); format: biochemical; note: ATP 20 µM
T15 construct: made in house; host or cells: baculovirus expression system
Description: as §2, §1

[17] = biological target: T16, FGR (Homo sapiens, UniProt P09769); assay: Kinase inhibition profiling FGR (ELISA); format: biochemical; note: ATP 5 µM
T16 construct: His (N, cleaved yes); made in house; host or cells: baculovirus expression system
Description: as §2, §1

[18] = biological target: T17, Erk1 (Homo sapiens, UniProt P27361); assay: Kinase inhibition profiling Erk1 (IMAP); format: biochemical
T17 construct: Human Erk1 containing 379 amino acids was expressed; His (N); made in house; host or cells: E. coli
Description: as §1

[19] = biological target: T18, p38α (Homo sapiens, UniProt Q16539); assay: Kinase inhibition profiling p38α (IMAP); format: biochemical
T18 construct: GST (N); made in house; host or cells: E. coli
Description: as §1

[20] = biological target: T19, IRAK4 (Homo sapiens, UniProt Q9NWZ3); assay: Kinase inhibition profiling IRAK4 (IMAP); format: biochemical; note: ATP 80 µM
T19 construct: Kinase domain (KD) of Human IRAK4 [172-460 amino; GST (N); made in house; host or cells: baculovirus expression system
Description: as §1

[21] = biological target: T20, YES (Homo sapiens, UniProt P07947); assay: Kinase inhibition profiling YES (ELISA); format: biochemical
T20 construct: made in house; host or cells: baculovirus expression system
Description: as §2, §1

[22] = biological target: T21, CaMK2α (Homo sapiens, UniProt Q9UQM7); assay: Kinase inhibition profiling CaMK2α (IMAP); format: biochemical
T21 construct: His (N); made in house; host or cells: baculovirus expression system
Description: as §2, §1

[23] = biological target: T22, RET (Homo sapiens, UniProt P07949); assay: Kinase inhibition profiling RET (ELISA); format: biochemical; note: ATP 5 µM
T22 construct: Cytoplasmic domain of human RET [658-1114 amino acids; made in house; host or cells: baculovirus expression system
Description: as §1

[24] = biological target: T23, HMGB1 (Homo sapiens, UniProt P09429); assay: Protein binding experiments by circular dichroism (CD); details: assuming 1:1 stoichiometry binding
T23 construct: host or cells: bacteria (inferred from the mention of bacterial contaminants)
Source text: All CD spectra were collected on a Jasco J710 spectropolarimeter equipped with a NesLab RTE111 thermal controller unity, using a quartz cylindrical cuvette with a 1 cm path length (Jasco). A scan speed of 20 nm/min, a bandwidth of o 1 nm, and a resolution of 1 nm was always used.
The spectra are heavily disturbed more than likely due to DMF.

[25] = biological target: T24, ABL (Homo sapiens, UniProt P00519); assay: Kinase inhibition profiling ABL (ELISA); format: biochemical
T24 construct: made in house; host or cells: baculovirus expression system
Description: as §1

T12 sequence (Q9H3Y6 215-488 limits assumed): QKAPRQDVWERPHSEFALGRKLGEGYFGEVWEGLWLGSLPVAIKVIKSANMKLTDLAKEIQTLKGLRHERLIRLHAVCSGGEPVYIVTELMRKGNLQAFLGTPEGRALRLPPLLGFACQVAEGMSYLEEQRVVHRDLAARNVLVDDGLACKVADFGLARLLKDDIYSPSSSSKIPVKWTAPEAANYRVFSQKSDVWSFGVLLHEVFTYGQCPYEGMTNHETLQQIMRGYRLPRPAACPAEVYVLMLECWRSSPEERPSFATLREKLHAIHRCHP
T15 sequence (P08631 73-526): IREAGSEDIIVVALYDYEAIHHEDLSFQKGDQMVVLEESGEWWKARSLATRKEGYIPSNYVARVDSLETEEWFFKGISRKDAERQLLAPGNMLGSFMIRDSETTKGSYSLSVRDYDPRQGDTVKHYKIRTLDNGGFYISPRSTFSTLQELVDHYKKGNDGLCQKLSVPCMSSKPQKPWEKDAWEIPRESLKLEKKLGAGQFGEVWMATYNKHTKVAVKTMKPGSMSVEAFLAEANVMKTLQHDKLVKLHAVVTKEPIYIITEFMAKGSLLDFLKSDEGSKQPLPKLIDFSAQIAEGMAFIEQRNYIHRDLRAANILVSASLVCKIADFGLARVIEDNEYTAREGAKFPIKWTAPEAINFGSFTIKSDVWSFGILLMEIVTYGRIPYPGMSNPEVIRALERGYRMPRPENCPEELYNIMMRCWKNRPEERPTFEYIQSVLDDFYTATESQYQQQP
T10 sequence (Q04912 979-1400): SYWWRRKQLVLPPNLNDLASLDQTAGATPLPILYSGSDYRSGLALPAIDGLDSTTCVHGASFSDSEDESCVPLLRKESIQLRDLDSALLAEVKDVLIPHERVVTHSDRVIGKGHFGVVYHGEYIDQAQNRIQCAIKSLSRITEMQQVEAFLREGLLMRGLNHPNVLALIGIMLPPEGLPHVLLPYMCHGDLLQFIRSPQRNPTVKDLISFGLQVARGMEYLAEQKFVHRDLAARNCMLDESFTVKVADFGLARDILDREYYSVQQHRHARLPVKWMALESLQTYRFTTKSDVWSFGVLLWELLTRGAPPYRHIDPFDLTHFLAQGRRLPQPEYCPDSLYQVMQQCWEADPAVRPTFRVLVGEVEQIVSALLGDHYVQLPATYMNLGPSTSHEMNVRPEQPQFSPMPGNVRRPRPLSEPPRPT
T23 sequence (P09429 whole entry, species assumed): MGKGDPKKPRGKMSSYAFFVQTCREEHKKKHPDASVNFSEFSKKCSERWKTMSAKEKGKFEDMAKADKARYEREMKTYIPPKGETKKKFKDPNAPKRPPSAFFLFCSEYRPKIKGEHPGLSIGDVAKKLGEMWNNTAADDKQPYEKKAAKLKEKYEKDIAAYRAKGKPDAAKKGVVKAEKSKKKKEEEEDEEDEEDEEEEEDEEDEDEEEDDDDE
T17 sequence (P27361 whole entry): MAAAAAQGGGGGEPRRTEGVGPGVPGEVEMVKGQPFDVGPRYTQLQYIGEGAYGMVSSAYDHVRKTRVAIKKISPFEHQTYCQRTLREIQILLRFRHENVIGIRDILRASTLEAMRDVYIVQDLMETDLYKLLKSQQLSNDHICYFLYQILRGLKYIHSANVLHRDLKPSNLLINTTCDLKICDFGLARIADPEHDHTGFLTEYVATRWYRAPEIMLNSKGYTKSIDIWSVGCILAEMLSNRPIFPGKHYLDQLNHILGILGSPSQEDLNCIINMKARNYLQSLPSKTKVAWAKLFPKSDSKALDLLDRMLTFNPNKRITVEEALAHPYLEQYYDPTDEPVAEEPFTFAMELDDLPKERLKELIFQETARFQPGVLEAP
T8 sequence (P10721 544-976): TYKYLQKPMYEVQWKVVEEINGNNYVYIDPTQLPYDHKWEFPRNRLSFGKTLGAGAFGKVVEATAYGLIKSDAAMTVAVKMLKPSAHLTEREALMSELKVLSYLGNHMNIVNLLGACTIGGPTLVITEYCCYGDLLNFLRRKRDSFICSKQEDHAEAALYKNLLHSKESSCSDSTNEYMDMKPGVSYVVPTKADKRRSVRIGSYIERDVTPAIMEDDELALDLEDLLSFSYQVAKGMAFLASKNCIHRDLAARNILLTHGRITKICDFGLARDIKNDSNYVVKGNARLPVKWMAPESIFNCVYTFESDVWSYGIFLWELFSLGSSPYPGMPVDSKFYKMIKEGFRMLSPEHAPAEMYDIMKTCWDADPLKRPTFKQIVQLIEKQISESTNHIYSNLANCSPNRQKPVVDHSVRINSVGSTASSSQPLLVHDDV
T2 sequence (P51451 whole entry): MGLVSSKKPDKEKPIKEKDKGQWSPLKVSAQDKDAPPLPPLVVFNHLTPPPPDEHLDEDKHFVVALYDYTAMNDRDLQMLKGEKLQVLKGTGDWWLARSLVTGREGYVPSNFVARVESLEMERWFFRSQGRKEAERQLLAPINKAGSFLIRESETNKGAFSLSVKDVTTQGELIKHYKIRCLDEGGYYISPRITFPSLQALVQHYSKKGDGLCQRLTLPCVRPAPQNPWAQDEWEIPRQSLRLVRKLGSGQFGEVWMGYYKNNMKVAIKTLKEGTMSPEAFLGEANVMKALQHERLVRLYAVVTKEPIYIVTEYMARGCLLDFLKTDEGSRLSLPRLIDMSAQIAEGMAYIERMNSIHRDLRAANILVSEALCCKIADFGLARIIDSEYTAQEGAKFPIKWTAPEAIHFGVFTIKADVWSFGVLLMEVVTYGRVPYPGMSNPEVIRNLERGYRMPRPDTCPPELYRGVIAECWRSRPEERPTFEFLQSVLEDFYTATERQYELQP
T4 sequence (P28482 whole entry): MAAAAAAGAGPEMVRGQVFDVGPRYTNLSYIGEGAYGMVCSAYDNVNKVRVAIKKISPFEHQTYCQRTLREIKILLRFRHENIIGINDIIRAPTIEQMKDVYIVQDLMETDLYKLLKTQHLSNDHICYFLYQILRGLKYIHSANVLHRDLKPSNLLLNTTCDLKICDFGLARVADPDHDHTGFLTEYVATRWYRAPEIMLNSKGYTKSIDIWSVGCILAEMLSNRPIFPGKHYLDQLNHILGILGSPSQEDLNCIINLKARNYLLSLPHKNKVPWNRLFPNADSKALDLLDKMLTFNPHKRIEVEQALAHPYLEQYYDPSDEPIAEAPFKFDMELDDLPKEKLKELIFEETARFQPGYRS
T9 sequence (Q9UM73 1089-1620): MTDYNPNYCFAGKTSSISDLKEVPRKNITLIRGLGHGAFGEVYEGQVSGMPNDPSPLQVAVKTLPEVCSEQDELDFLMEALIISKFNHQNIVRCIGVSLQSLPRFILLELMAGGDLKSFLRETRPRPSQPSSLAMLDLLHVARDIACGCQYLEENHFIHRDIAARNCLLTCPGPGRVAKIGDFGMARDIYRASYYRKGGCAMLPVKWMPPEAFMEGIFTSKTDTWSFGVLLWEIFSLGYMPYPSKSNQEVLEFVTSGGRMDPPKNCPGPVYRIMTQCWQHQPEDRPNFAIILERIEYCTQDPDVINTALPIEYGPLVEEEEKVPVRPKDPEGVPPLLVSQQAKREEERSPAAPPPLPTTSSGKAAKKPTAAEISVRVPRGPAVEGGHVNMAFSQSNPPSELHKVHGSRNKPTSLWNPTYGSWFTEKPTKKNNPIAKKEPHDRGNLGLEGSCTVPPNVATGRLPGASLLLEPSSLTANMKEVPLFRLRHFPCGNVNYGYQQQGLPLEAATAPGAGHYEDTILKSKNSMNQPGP
T6 sequence (P35968 790-1356): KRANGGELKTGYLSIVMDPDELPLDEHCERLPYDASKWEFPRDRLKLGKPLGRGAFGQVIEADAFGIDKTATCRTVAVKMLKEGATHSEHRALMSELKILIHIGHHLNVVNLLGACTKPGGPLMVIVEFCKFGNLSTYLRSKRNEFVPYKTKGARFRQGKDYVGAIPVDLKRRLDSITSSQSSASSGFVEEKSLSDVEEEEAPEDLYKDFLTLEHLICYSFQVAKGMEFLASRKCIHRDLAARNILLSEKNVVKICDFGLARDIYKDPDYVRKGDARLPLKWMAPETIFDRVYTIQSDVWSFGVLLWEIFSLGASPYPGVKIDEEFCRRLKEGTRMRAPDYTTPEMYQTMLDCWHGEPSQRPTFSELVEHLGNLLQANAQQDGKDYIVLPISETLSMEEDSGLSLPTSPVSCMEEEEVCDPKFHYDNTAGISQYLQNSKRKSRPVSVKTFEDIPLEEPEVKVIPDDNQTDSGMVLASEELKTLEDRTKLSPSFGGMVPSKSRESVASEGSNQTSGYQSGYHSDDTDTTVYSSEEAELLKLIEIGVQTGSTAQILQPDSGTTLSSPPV

COC(=O)[C@]1(O)CC2O[C@@]1(C)n1c3ccccc3c3c4c(c5c6ccccc6n2c5c31)C(=O)NC4 [K-252a]
inhibition at 0.2 µM [1]: 58.9% | inhibition at 0.2 µM [2]: 83.5% | inhibition at 0.2 µM [3]: 64.4% | inhibition at 0.2 µM [4]: 14.2% | HMGB1-induced BASMC cell migration [5]: actively and concentration-dependently (in a nanomolar range) antagonizes HMGB1-induced BASMC cell migration | inhibition at 0.2 µM [6]: 44.3% | inhibition at 0.2 µM [7]: 62.9% | inhibition at 0.2 µM [8]: 38% | inhibition at 0.2 µM [9]: 87.3% | inhibition at 0.2 µM [10]: 69.5% | inhibition at 0.2 µM [11]: 5.2% | inhibition at 0.2 µM [12]: 51.2% | inhibition at 0.2 µM [13]: 0.4% | inhibition at 0.2 µM [14]: 7.7% | inhibition at 0.2 µM [15]: 91.4% | inhibition at 0.2 µM [16]: 68.2% | inhibition at 0.2 µM [17]: 85.6% | inhibition at 0.2 µM [18]: 32% | inhibition at 0.2 µM [19]: -1.5% | inhibition at 0.2 µM [20]: 51.9% | inhibition at 0.2 µM [21]: 65.1% | inhibition at 0.2 µM [22]: 83.9% | inhibition at 0.2 µM [23]: 94.2% | Kd [24]: ~2 µM | inhibition at 0.2 µM [25]: -14.2%
